PubChem BioAssay (NCI)
Values joined by “and” are separate entries in the source; they are usually repeats but may differ in a detail not shown here. Identical values can stand only once.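 Cells were grown in 96-well plates and exposed to each compound for 48 hours at five concentrations; endpoints were interpolated linearly between bracketing concentrations, or set to the highest concentration if not reached. Abbreviation: GI50, concentration required for 50% inhibition of growth. TGI is the concentration that stops growth completely.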 Where a SMILES comes first, the peptide text is derived from it. Side-chain parts run from the residue outwards. The star is where a group is joined. Cbz = O=C(OCc1ccccc1)*; Boc = CC(C)(C)OC(=O)*

Experiments:
Assay in all cases: growth of human tumour cells (NCI), 48 h
[1] = tested on: 786-0 renal
[2] = tested on: A498 renal
[3] = tested on: A549 NSCLC
[4] = tested on: ACHN renal
[5] = tested on: BT-549 breast
[6] = tested on: CAKI-1 renal
[7] = tested on: CCRF-CEM leukemia
[8] = tested on: DU-145 prostate
[9] = tested on: HCC-2998 colon
[10] = tested on: HCT-116 colon
[11] = tested on: HCT-15 colon
[12] = tested on: HL-60(TB) leukemia
[13] = tested on: HOP-62 NSCLC
[14] = tested on: HT29 colon
[15] = tested on: IGROV1 ovarian
[16] = tested on: K-562 leukemia
[17] = tested on: LOX IMVI melanoma
[18] = tested on: M14 melanoma
[19] = tested on: MALME-3M melanoma
[20] = tested on: MCF7 breast
[21] = tested on: MDA-MB-231 breast
[22] = tested on: MDA-MB-435
[23] = tested on: MDA-N
[24] = tested on: MOLT-4 leukemia
[25] = tested on: NCI-H226 lung
[26] = tested on: NCI-H23 lung
[27] = tested on: NCI-H460 lung
[28] = tested on: NCI-H522 lung
[29] = tested on: OVCAR-3 ovarian
[30] = tested on: OVCAR-4 ovarian
[31] = tested on: OVCAR-5 ovarian
[32] = tested on: OVCAR-8 ovarian
[33] = tested on: PC-3 prostate
[34] = tested on: RPMI-8226 leukemia
[35] = tested on: SF-268 CNS
[36] = tested on: SK-MEL-2 melanoma
[37] = tested on: SK-MEL-28 melanoma
[38] = tested on: SK-MEL-5 melanoma
[39] = tested on: SN12C renal
[40] = tested on: SNB-19 CNS
[41] = tested on: SNB-75 CNS
[42] = tested on: SR leukemia
[43] = tested on: SW-620 colon
[44] = tested on: T-47D breast
[45] = tested on: TK-10 renal
[46] = tested on: U251 CNS
[47] = tested on: UACC-257 melanoma
[48] = tested on: UACC-62 melanoma
[49] = tested on: UO-31 renal
[50] = tested on: EKVX NSCLC
[51] = tested on: HOP-92 NSCLC
[52] = tested on: HS 578T breast
[53] = tested on: RXF 393 renal
[54] = tested on: SF-295 CNS

In the case of `CC(C)CC(NC(=O)OCc1ccccc1)C(=O)NCCCCC(NC(=O)C(CCCCNC(=O)C(CC(C)C)NC(=O)OCc1ccccc1)NC(=O)C(CCCCNC(=O)C(CC(C)C)NC(=O)OCc1ccccc1)NC(=O)C(CCCCNC(=O)C(CC(C)C)NC(=O)OCc1ccccc1)NC(=O)OC(C)(C)C)C(=O)O` (centres undefined) (Boc-K([Leu-Cbz])K([Leu-Cbz])K([Leu-Cbz])K([Leu-Cbz])-OH; configuration not given here), the TGI [1] is reported as greater than 25 µM, the TGI [2] is reported as greater than 25 µM and the TGI [3] is reported as greater than 25 µM. The TGI [4] was greater than 25 µM, the TGI [5] was greater than 25 µM and the TGI [6] was greater than 25 µM. It also gave a TGI [7] greater than 25 µM, a TGI [8] greater than 25 µM and a TGI [9] greater than 25 µM. It also gave a TGI [10] greater than 25 µM, a TGI [11] greater than 25 µM and a TGI [12] greater than 25 µM. For the same molecule, the TGI [13] was greater than 25 µM, the TGI [14] was greater than 25 µM and the TGI [15] was greater than 25 µM. The TGI [16] was greater than 25 µM, the TGI [17] was greater than 25 µM and the TGI [18] was greater than 25 µM. It also gave a TGI [19] greater than 25 µM, a TGI [20] greater than 25 µM and a TGI [21] greater than 25 µM. It also gave a TGI [22] greater than 25 µM, a TGI [23] greater than 25 µM and a TGI [24] greater than 25 µM. For the same molecule, the TGI [25] was greater than 25 µM, the TGI [26] was greater than 25 µM and the TGI [27] was greater than 25 µM. For the same molecule, the TGI [28] was greater than 25 µM, the TGI [29] was greater than 25 µM and the TGI [30] was greater than 25 µM. The TGI [31] was greater than 25 µM, the TGI [32] was greater than 25 µM and the TGI [33] was greater than 25 µM. The TGI [34] was greater than 25 µM, the TGI [35] was greater than 25 µM and the TGI [36] was greater than 25 µM. For the same molecule, the TGI [37] was greater than 25 µM, the TGI [38] was greater than 25 µM and the TGI [39] was greater than 25 µM. The TGI [40] was greater than 25 µM, the TGI [41] was greater than 25 µM and the TGI [42] was greater than 25 µM. For the same molecule, the TGI [43] was greater than 25 µM, the TGI [44] was greater than 25 µM and the TGI [45] was greater than 25 µM. The TGI [46] was greater than 25 µM, the TGI [47] was greater than 25 µM and the TGI [48] was greater than 25 µM. For the same molecule, the TGI [49] was greater than 25 µM.
For `O=c1[nH]cc(F)c(=O)[nH]1`, the GI50 [2] was 4.81 µM and 5.2 µM, the GI50 [5] was 7.32 µM and 6.94 µM and 27.1 µM and the TGI [5] was > 100 µM and 2090 µM and > 1390 µM. The GI50 [7] was 9.86 µM and 8.53 µM, the TGI [7] was 1990 µM and > 1040 µM and the TGI [8] was > 100 µM and 2160 µM and > 2500 µM. The TGI [50] was > 100 µM and 2250 µM and > 2500 µM, the TGI [12] was > 100 µM and 1560 µM and 298 µM and the TGI [51] was > 100 µM and 2040 µM and > 2500 µM. The GI50 [52] was > 100 µM and 14.3 µM, the TGI [52] was > 100 µM and 2250 µM and > 1170 µM and the GI50 [15] was 6.13 µM and 2.37 µM and 20.6 µM. The GI50 [16] was 4.75 µM and 12 µM, the TGI [16] was 2190 µM and > 1830 µM and the TGI [23] was 2390 µM and > 2500 µM. The GI50 [24] was 6.25 µM and 0.871 µM, the GI50 [25] was 23.9 µM and 59.6 µM and 186 µM and the TGI [25] was > 100 µM and 2170 µM and > 2500 µM. The GI50 [28] was 11 µM and 11.5 µM and 82.9 µM, the TGI [33] was > 100 µM and 2250 µM and > 2500 µM and the GI50 [53] was 25.9 µM and 2.91 µM and 23.8 µM. The TGI [35] was > 100 µM and 2280 µM and > 2500 µM, the GI50 [54] was 6.45 µM and 0.721 µM and the TGI [36] was > 100 µM and 2190 µM and > 2500 µM. For the same molecule, the GI50 [37] was 5.99 µM and 1.5 µM, the TGI [41] was > 100 µM and 1990 µM and 2430 µM and the GI50 [42] was 1.26 µM and 0.514 µM. The TGI [42] was > 100 µM and > 33.4 µM and 609 µM, the TGI [43] was > 100 µM and 2440 µM and > 2360 µM and the GI50 [44] was 7.97 µM and 9.73 µM and 17.6 µM.
